Values quoted from earlier work, collected in publication PMC8201747, “Cell Permeability of Isomeric Macrocycles: Predictions and NMR Studies” (ACS Medicinal Chemistry Letters, 2021).

Test system: Caco-2 cell monolayer
Conditions: Table S17, reported previously, ref 13 (SI); for ER (efflux ratio): Caco-2

| ER (efflux ratio) | Permeability (passive permeability across a Caco-2 cell monolayer, Papp AB+inhibitor cocktail) [×10⁻⁶ cm/s] | SMILES |
| --- | --- | --- |
| 1.40 | 1.89 | CO[C@H]1CN(C)C(=O)c2cc(C#N)ccc2OC[C@@H]2O[C@H](CC[C@H]2OC)CCN(C)C(=O)[C@@H]1C [Macrocycle 5] |
| 0.81 | 23.08 | CO[C@@H]1CC[C@@H]2CCN(C)C(=O)[C@H](C)[C@H](OC)CN(C)C(=O)c3cccc(C#N)c3OC[C@@H]1O2 [Macrocycle 6] |
| 0.78 | 6.36 | CO[C@H]1CN(C)C(=O)c2cccc(C#N)c2OC[C@@H]2O[C@H](CC[C@H]2OC)CCN(C)C(=O)[C@@H]1C [Macrocycle 7] |
